{"source": "patent US8815912B2", "about": "“Wound and mucosa antiseptic based on bispyridiniumalkanes” (L'Air Liquide Société Anonyme pour l'Etude et …, priority 2009, dated 2014)", "test": "Stability of solutions rendered isotonic (290 mOsmol/kg)", "type": "physicochemical", "conditions": "0.10% octenidine, dihydrochloride", "source_text": "To investigate the stability, aqueous solutions containing 0.1% by weight of octenidine were in each case rendered isotonic (290 mOsmol/kg)."}
{"compound": "CCCCCCCCN=c1ccn(CCCCCCCCCCn2ccc(=NCCCCCCCC)cc2)cc1.Cl.Cl", "note": "[Octenidine, Octenidine dihydrochloride]", "values": [{"measurement": "Stability", "setting": "isotonicity adjusted with 0.85% sodium chloride, listed as octenidine", "value": "not stable"}, {"measurement": "Stability", "setting": "isotonicity adjusted with 2.4% glycerol (99.8% strength)", "value": "Stable between +4 °C and +40 °C"}, {"measurement": "Stability", "setting": "isotonicity adjusted with 2.4% glycerol (99.8% strength), listed as octenidine", "value": "stable"}, {"measurement": "Stability", "setting": "isotonicity adjusted with 99.9% Ringer's solution, listed as octenidine", "value": "not stable"}]}
